# From patent US10561606B2, “Injectable long-acting local anesthetic semi-solid gel formulations” (Mira Pharma Corporation, priority 2017, dated 2020)
# Where a name gives a salt, the structure may show the parent alone.
# Tests used:
# [1] = BASF MSDS sheet; cited from earlier work
# sciatic nerve = conditions: cited from earlier work
# [2] = cited from earlier work
# [3] = Solubility/loading of local anesthetic in oils, castor oil and semi-solid vehicle; type: physicochemical
# [4] = limited by low solubility in the vehicle; cited from earlier work
# [5] = in poly(lactic acid-co-castor oil), single injection
smiles,measurement,setting,value
CCCCN1CCCCC1C(=O)Nc1c(C)cccc1C (stereo not drawn) [bupivacaine hydrochloride],water solubility,[1],600 mg/mL
CCCCN1CCCCC1C(=O)Nc1c(C)cccc1C (stereo not drawn) [bupivacaine],sciatic nerve blockade prolonged to,"sciatic nerve; 10% (w/v) in poly(sebacic-co-ricinoleic acid), from 8 hours",30 h
same,duration of nerve block,sciatic nerve; in poly(lactic acid-co-castor oil) at 10% (w/v),1 to 2 days
same,duration of sensory blockade,sciatic nerve; in poly(lactic acid-co-castor oil) at 15% (w/v),96 h
same,motor blockade,sciatic nerve; [5],64 h
same,sensory blockade,sciatic nerve; [5],96 h
same,release of bupivacaine from the oil,"[2]; fractionated coconut oil, in less than two hours, rotating dialysis cell",80%
same,stored bupivacaine released during one week,[2]; from poly(lactic acid-co-castor oil),60%
same,incorporated drug released over one week in vitro,[2]; from poly(sebacic-co-ricinoleic acid),70%
same,solubility in corn oil,[3],2.8 wt %
same,solubility in olive oil,[3],2.5 wt %
same,solubility in sesame oil,[3],3.0 wt %
same,solubility in typical vegetable oils,[3],less than 3 wt %
same,solubility in vegetable oil,[3],2.5 wt %
Cc1cccc(C)c1NC(=O)C1CCCCN1C (stereo not drawn) [mepivacaine],amount that can be loaded into polyorthoester vehicle,[4],about 3 wt %
